Test results published in patent US5602176A, “Phenyl carbamate” (priority 1987, dated 1997).
Like-named read-outs stand apart in the source and are kept apart here.

How the values were obtained:
[1] = test system: rat hippocampal slices (indirect method for acetylcholinesterase (AChE) inhibition); experiment: Electrically evoked 3H-acetylcholine release from rat hippocampal slices; format: cell-based
From the text: Electrically evoked ^3 H-acetylcholine release from rat hippocampal slices
Electrically evoked ^3 H-acetylcholine (^3 H-ACh) release from rat hippocampal slices is a functional in vitro model to investigate presynaptic muscarinic autoreceptor agonists and antagonists. This model can also be used as an indirect method to evaluate drugs which inhibit acetylcholinesterase (AChE). Inhibition of AChE activity leads to the accumulation of endogenous ACh which then interacts with presynaptic muscarinic autoreceptors and inhibits further release of ^3 H-ACh.
Rat hippocampal slices (Wistar strain, 180-200 g) are prepared by chopping into cross sections whole hippocampal slices at a distance of 0.3 mm with a McIlwain tissue chopper. Hippocampal slices obtained from 3 rats are incubated for 30 min. at 23° C. in 6 ml Krebs-Ringer containing 0.1 uCi ^3 H-choline and transferred into the superfusion chamber and superfused with Kreb's medium containing 10 μM hemicholinium-3 at a rate of 1.2 ml/min. at 30° C. Collection of 5 min. fractions of the superfusate begins after 60 min. of superfusion. Two periods of electrical stimulation (2 Hz rectangular pulses 2 msec, 10 mA, 2 min.) are applied after 70 min. (S1) and after 125 min. (S2) of superfusion. […] At the end of the experiments the slices are solubilized in conc. formic acid and tritium content is determined in the superfusate and the solubilized slices. Tritium outflow is expressed as the fractional rate of tritium outflow per min. Electrically evoked tritium outflow is calculated by subtraction of the extrapolated basal tritium outflow from the total tritium outflow during the two min. of electrical stimulation and the following 13 min. and is expressed as percent of the tritium content at the beginning of the sample collection. Drug effects on stimulation evoked tritium outflow are expressed as the ratios S2 /S1. All experiments are run in dublicates using a programmable 12 channel superfusion system. For the calculation a computer program is used.

AChE = AChE (Rattus norvegicus, UniProt P37136); experiment: in vivo; format: in vivo; parameters: from tissue; host or cells: male OFA rats: cortex, hippocampus, striatum, pons/medulla, heart, blood; settings: for remaining activity at 10 µmol/kg: rat, po
AChE, sequence (P37136 32-614): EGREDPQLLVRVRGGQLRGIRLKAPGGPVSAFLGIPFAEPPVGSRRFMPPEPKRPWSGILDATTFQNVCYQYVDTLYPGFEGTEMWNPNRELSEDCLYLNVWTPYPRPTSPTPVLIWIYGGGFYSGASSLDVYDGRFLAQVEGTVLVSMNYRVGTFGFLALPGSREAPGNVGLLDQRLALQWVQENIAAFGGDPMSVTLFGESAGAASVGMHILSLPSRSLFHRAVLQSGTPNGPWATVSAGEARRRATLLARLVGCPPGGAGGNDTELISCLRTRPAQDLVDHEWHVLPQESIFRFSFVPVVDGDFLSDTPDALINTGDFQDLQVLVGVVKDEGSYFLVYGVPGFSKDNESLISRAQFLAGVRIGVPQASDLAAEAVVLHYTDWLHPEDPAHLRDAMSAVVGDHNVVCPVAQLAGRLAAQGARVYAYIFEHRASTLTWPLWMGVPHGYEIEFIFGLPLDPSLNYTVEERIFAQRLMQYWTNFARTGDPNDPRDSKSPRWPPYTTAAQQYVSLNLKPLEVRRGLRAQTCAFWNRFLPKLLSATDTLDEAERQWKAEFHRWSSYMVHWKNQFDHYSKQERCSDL

[2] = molecular target: T1, AChE preparations of different rat brain regions (Rattus norvegicus, UniProt P37136); experiment: Acetylcholinesterase inhibition in different rat brain regions (in vitro, Ellman); format: biochemical; settings: table 1
T1 construct: Rat brain tissue is homogenized in cold phosphate buffer pH 7.3; from tissue; host or cells: rat brain (cortex, hippocampus, striatum), supernatant of Triton X-100 homogenate
T1 sequence (P37136 32-614): as above
Protocol: Acetylcholinesterase inhibition in different rat brain regions
AChE preparations of different rat brain regions (Cortex, hippocampus and striatum) are used in this test and the IC50 (inhibitory concentrations in μM) are determined. The enzyme preparations are preincubated with the inhibitor 15 minutes before the determination.
The AChE activity is measured according to the method described by Ellman (Arch. Biochem. Biophys. 82, 70, 1959). Rat brain tissue is homogenized in cold phosphate buffer pH 7.3 (0.25 mM) containing 0.1% of Triton X-100. After centrifugation aliquots of the clear supernatant is used as enzyme source. The enzyme is preincubated with different concentrations of the inhibitor. After different times, substrate (acetylthiocholinjodide 0.5 mM) is added and the remaining activity determined.

[3] = Subcutaneous 8 μmol/kg, 0.5 hours after treatment
[4] = Subcutaneous 8 μmol/kg, 6 hours after treatment
[5] = Subcutaneous 8 μmol/kg, 24 hours after treatment
[6] = Transdermal 30 μmol/kg, 0.5 hours after treatment
[7] = Transdermal 30 μmol/kg, 6 hours after treatment
[8] = Transdermal 30 μmol/kg, 24 hours after treatment

CCN(C)C(=O)Oc1cccc([C@H](C)N(C)C)c1 [Compound A, (S)-N-ethyl-3-[(1-dimethylamino)ethyl]-N-methyl-phenyl-carbamate]
antagonism of the inhibitory effect by atropine [1]: can be antagonized by atropine | inhibition at 100 µM ([1]; Rattus norvegicus, 3 h, 100 μM, read-out: inhibition of electrically evoked 3H-ACh release from hippocampal slices): ~40% | AChE activity in % of controls ± SD, Blood (AChE; [3]): 17.4 ± 4.1 % of controls | AChE activity in % of controls ± SD, Cortex (AChE; [3]): 16.8 ± 2.0 % of controls | AChE activity in % of controls ± SD, Heart (AChE; [3]): 33.3 ± 5.6 % of controls | AChE activity in % of controls ± SD, Hippocampus (AChE; [3]): 18.3 ± 3.1 % of controls | AChE activity in % of controls ± SD, Pons/Medulla (AChE; [3]): 20.9 ± 2.9 % of controls | AChE activity in % of controls ± SD, Striatum (AChE; [3]): 28.2 ± 12.2 % of controls | AChE activity in % of controls ± SD, Blood (AChE; [4]): 79.5 ± 8.2 % of controls | AChE activity in % of controls ± SD, Cortex (AChE; [4]): 85.1 ± 1.6 % of controls | AChE activity in % of controls ± SD, Heart (AChE; [4]): 51.0 ± 17.9 % of controls | AChE activity in % of controls ± SD, Hippocampus (AChE; [4]): 81.4 ± 7.6 % of controls | AChE activity in % of controls ± SD, Pons/Medulla (AChE; [4]): 87.1 ± 4.1 % of controls | AChE activity in % of controls ± SD, Striatum (AChE; [4]): 82.9 ± 2.8 % of controls | AChE activity in % of controls ± SD, Blood (AChE; [5]): 105.7 ± 16.8 % of controls | AChE activity in % of controls ± SD, Cortex (AChE; [5]): 93.8 ± 5.9 % of controls | AChE activity in % of controls ± SD, Heart (AChE; [5]): 65.7 ± 21.2 % of controls | AChE activity in % of controls ± SD, Hippocampus (AChE; [5]): 99.9 ± 9.9 % of controls | AChE activity in % of controls ± SD, Pons/Medulla (AChE; [5]): 98.7 ± 6.0 % of controls | AChE activity in % of controls ± SD, Striatum (AChE; [5]): 91.0 ± 2.3 % of controls | AChE activity in % of controls ± SD, Cortex (AChE; [6]): 86.1 ± 5.6 % of controls | AChE activity in % of controls ± SD, Heart (AChE; [6]): 109.0 ± 9.3 % of controls | AChE activity in % of controls ± SD, Hippocampus (AChE; [6]): 86.7 ± 5.9 % of controls | AChE activity in % of controls ± SD, Pons/Medulla (AChE; [6]): 91.5 ± 3.8 % of controls | AChE activity in % of controls ± SD, Striatum (AChE; [6]): 89.7 ± 8.4 % of controls | AChE activity in % of controls ± SD, Blood (AChE; [7]): 41.9 ± 13.1 % of controls | AChE activity in % of controls ± SD, Heart (AChE; [7]): 52.0 ± 13.1 % of controls | AChE activity in % of controls ± SD, Hippocampus (AChE; [7]): 45.7 ± 15.0 % of controls | AChE activity in % of controls ± SD, Pons/Medulla (AChE; [7]): 53.6 ± 13.3 % of controls | AChE activity in % of controls ± SD, Cortex (AChE; [8]): 73.8 ± 5.7 % of controls | AChE activity in % of controls ± SD, Heart (AChE; [8]): 63.9 ± 12.5 % of controls | AChE activity in % of controls ± SD, Hippocampus (AChE; [8]): 80.4 ± 8.8 % of controls | AChE activity in % of controls ± SD, Pons/Medulla (AChE; [8]): 85.3 ± 4.2 % of controls | AChE activity in % of controls ± SD, Striatum (AChE; [8]): 81.0 ± 8.2 % of controls | time of maximal AChE inhibition (AChE; oral): 15 min | remaining activity at 10 µmol/kg (AChE; read-out: AChE activity in % of controls ± SD, Blood, Oral 10 μmol/kg, 0.5 hours after treatment): 34 ± 2% | remaining activity at 10 µmol/kg (AChE; read-out: AChE activity in % of controls ± SD, Blood, Oral 10 μmol/kg, 6 hours after treatment): 77.2 ± 14.7% | remaining activity at 10 µmol/kg (AChE; read-out: AChE activity in % of controls ± SD, Blood, Oral 10 μmol/kg, 24 hours after treatment): 97.2 ± 13.8% | remaining activity at 10 µmol/kg (AChE; read-out: AChE activity in % of controls ± SD, Cortex, Oral 10 μmol/kg, 0.5 hours after treatment): 21 ± 3.5% | remaining activity at 10 µmol/kg (AChE; read-out: AChE activity in % of controls ± SD, Cortex, Oral 10 μmol/kg, 6 hours after treatment): 65.3 ± 21.3% | remaining activity at 10 µmol/kg (AChE; read-out: AChE activity in % of controls ± SD, Cortex, Oral 10 μmol/kg, 24 hours after treatment): 99.2 ± 8.9% | remaining activity at 10 µmol/kg (AChE; read-out: AChE activity in % of controls ± SD, Heart, Oral 10 μmol/kg, 0.5 hours after treatment): 71.2 ± 11.2% | remaining activity at 10 µmol/kg (AChE; read-out: AChE activity in % of controls ± SD, Heart, Oral 10 μmol/kg, 6 hours after treatment): 101 ± 7% | remaining activity at 10 µmol/kg (AChE; read-out: AChE activity in % of controls ± SD, Heart, Oral 10 μmol/kg, 24 hours after treatment): 94.2 ± 9.2% | remaining activity at 10 µmol/kg (AChE; read-out: AChE activity in % of controls ± SD, Hippocampus, Oral 10 μmol/kg, 0.5 hours after treatment): 19.7 ± 3.8% | remaining activity at 10 µmol/kg (AChE; read-out: AChE activity in % of controls ± SD, Hippocampus, Oral 10 μmol/kg, 6 hours after treatment): 62 ± 15.4% | remaining activity at 10 µmol/kg (AChE; read-out: AChE activity in % of controls ± SD, Hippocampus, Oral 10 μmol/kg, 24 hours after treatment): 97.2 ± 7.1% | remaining activity at 10 µmol/kg (AChE; read-out: AChE activity in % of controls ± SD, Pons/Medulla, Oral 10 μmol/kg, 0.5 hours after treatment): 26.6 ± 4% | remaining activity at 10 µmol/kg (AChE; read-out: AChE activity in % of controls ± SD, Pons/Medulla, Oral 10 μmol/kg, 6 hours after treatment): 80.3 ± 9.2% | remaining activity at 10 µmol/kg (AChE; read-out: AChE activity in % of controls ± SD, Pons/Medulla, Oral 10 μmol/kg, 24 hours after treatment): 104 ± 6.8% | remaining activity at 10 µmol/kg (AChE; read-out: AChE activity in % of controls ± SD, Striatum, Oral 10 μmol/kg, 0.5 hours after treatment): 32.9 ± 10.7% | remaining activity at 10 µmol/kg (AChE; read-out: AChE activity in % of controls ± SD, Striatum, Oral 10 μmol/kg, 6 hours after treatment): 87.5 ± 8.8% | remaining activity at 10 µmol/kg (AChE; read-out: AChE activity in % of controls ± SD, Striatum, Oral 10 μmol/kg, 24 hours after treatment): 96.7 ± 3.3% | time of maximal AChE inhibition (AChE; subcutaneous): 30 min | AChE inhibition after transdermal administration (AChE; transdermal): long-lasting, dose-dependent inhibition of AChE activity | time of maximal AChE inhibition (AChE; transdermal): > 120 min | AChE activity (AChE; twenty four hours after oral application): has no effect on the enzyme | AChE activity (AChE; twenty four hours after s.c. application): only the enzyme in the heart is significantly inhibited | AChE activity (AChE; twenty four hours after transdermal application): still inhibited in central and peripheral regions | AChE inhibition in vitro, comparison in words [2]: slightly superior than that with racemate C
